Experimental data: ChEMBL document CHEMBL1130879, “trans-3-Benzyl-4-hydroxy-7-chromanylbenzoic acid derivatives as antagonists of the leukotriene B4 (LTB4) receptor” (Bioorg Med Chem Lett, 1998)

What was measured:
Leukotriene B4 receptor [1] = target: T1, Leukotriene B4 receptor (Homo sapiens, UniProt Q9NPC1+Q15722); experiment: Ability to inhibit LTB4 binding to LTB receptors on isolated human neutrophils.; assay type: protein assay
Leukotriene B4 receptor [2] = target: T1, Leukotriene B4 receptor; experiment: Ability to inhibit LTB4-induced chemotaxis of isolated human neutrophils.; assay type: functional
[3] = target: Leukotriene B4 receptor (Cavia porcellus); experiment: Compound was evaluated for its ability to inhibit [3H]LTB4 binding to LTB4 receptors on guinea pig spleen membranes
[4] = Ratio of CD11b(WB) IC50 to CD11b (IC)IC50; assay type: functional
Leukotriene B4 receptor [5] = target: T1, Leukotriene B4 receptor; experiment: Ability to inhibit LTB4-induced CD11b up-regulation on isolated human neutrophils; assay type: functional
Leukotriene B4 receptor [6] = target: T1, Leukotriene B4 receptor; experiment: Ability to inhibit LTB4-induced CD11b up-regulation on isolated human neutrophils in whole blood; assay type: functional, tissue-based

Structure (SMILES) | IC50 (Leukotriene B4 receptor [1]) [nM] | IC50 (Leukotriene B4 receptor [2]) [nM] | IC50 [3] [nM] | Ratio [4] | IC50 (Leukotriene B4 receptor [5]) [nM] | IC50 (Leukotriene B4 receptor [6]) [nM]
O=C(O)c1ccc(C(F)(F)F)cc1-c1ccc2c(c1)OC[C@H](Cc1ccc(Cl)cc1)[C@H]2O | 70 | 58 |  |  |  | 
O=C(O)c1ccc(Cl)cc1-c1ccc2c(c1)OC[C@H](Cc1ccccc1)[C@H]2O (stereo in doubt; 5) | 12 | 26 | 59 |  |  | 
O=C(O)c1cc(F)ccc1-c1ccc2c(c1)OC[C@H](Cc1ccccc1)[C@H]2O | 24 | 300 |  |  |  | 
OCc1ccc(C(F)(F)F)cc1-c1ccc2c(c1)OC[C@H](Cc1ccccc1)[C@H]2O | 1700 | 9 |  |  |  | 
O=C(O)c1ccc(C(F)(F)F)cc1-c1ccc2c(c1)OC[C@H](Cc1ccccc1)[C@H]2O (stereo in doubt; 16) |  |  |  | 2.3 |  | 
O=C(O)c1ccc(F)cc1-c1ccc2c(c1)OC[C@H](Cc1ccccc1)[C@H]2O (stereo in doubt; 9) [listing 1 of 2 here] |  |  |  | 2.5 |  | 
O=C(O)c1ccc(C(F)(F)F)cc1-c1ccc2c(c1)OC[C@H](Cc1ccc(-c3ccccc3)cc1)[C@H]2O (stereo in doubt; 26) [listing 1 of 2 here] | 38 | 6 |  |  | 120 | 1900
O=C(O)c1ccc(C(=O)O)c(-c2ccc3c(c2)OC[C@H](Cc2ccccc2)[C@H]3O)c1 |  |  | > 1000 |  |  | 
O=C(O)c1ccc(F)cc1-c1ccc2c(c1)OC[C@H](Cc1ccc(C(F)(F)F)cc1)[C@H]2O | 54 | 1800 |  |  |  | 
O=C(O)c1c(F)cc(F)cc1-c1ccc2c(c1)OC[C@H](Cc1ccccc1)[C@H]2O | 5 | 40 |  | 0.7 | 300 | 200
O=C(O)c1ccc(Cl)cc1-c1ccc2c(c1)OC[C@H](Cc1ccc(-c3ccccc3)cc1)[C@H]2O (stereo in doubt; 23) [listing 1 of 2 here] | 8 | 26 |  |  | 590 | 3900
O=C(O)c1ccc(Cl)cc1-c1ccc2c(c1)OC[C@H](Cc1ccccc1)[C@H]2O (stereo in doubt; 6) [listing 1 of 2 here] | 14 | 30 |  |  | 265 | 1300
O=C(O)c1ccc(C(F)(F)F)cc1-c1ccc2c(c1)OC[C@H](Cc1ccc(-c3ccccc3)cc1)[C@H]2O (stereo in doubt; 26) [listing 2 of 2 here] |  |  |  | 15.8 |  | 
CNC(=O)c1ccc(C(=O)O)c(-c2ccc3c(c2)OC[C@H](Cc2ccccc2)[C@H]3O)c1 |  |  | 4700 |  |  | 
O=C(O)c1c(F)cccc1-c1ccc2c(c1)OC[C@H](Cc1ccccc1)[C@H]2O (stereo in doubt; 13) [listing 1 of 2 here] |  |  |  | 2.5 |  | 
O=C(O)c1ccc(Cl)cc1-c1ccc2c(c1)OC[C@H](Cc1ccc(-c3ccccc3)cc1)[C@H]2O (stereo in doubt; 22) [listing 1 of 2 here] | 4 | 6 |  |  | 520 | 1700
O=C(O)c1ccc(F)cc1-c1ccc2c(c1)OC[C@H](Cc1ccc(-c3ccccc3)cc1)[C@H]2O (stereo in doubt; 24) [listing 1 of 2 here] | 4 | 56 |  |  | 280 | 700
O=C(O)c1ccc(Cl)cc1-c1ccc2c(c1)OC[C@H](Cc1ccc(C(F)(F)F)cc1)[C@H]2O | 400 | 9000 |  |  |  | 
COc1ccc(C(=O)O)c(-c2ccc3c(c2)OC[C@H](Cc2ccccc2)[C@H]3O)c1 |  |  | 160 |  |  | 
O=C(O)c1ccc(C(F)(F)F)cc1-c1ccc2c(c1)OC[C@H](Cc1ccccc1)[C@H]2O (stereo in doubt; 17) [CP-195543] | 56 | 2 |  |  |  | 
O=C(O)c1ccc(F)cc1-c1ccc2c(c1)OC[C@H](Cc1ccccc1)[C@H]2O (stereo in doubt; 8) | 12 | 5 |  |  |  | 
O=C(O)c1ccc(Cl)cc1-c1ccc2c(c1)OC[C@H](Cc1ccc3ccccc3c1)[C@H]2O | 100 | 2250 |  |  |  | 
O=S(=O)(Nc1ccc(F)cc1-c1ccc2c(c1)OC[C@H](Cc1ccccc1)[C@H]2O)C(F)(F)F (stereo in doubt; 38) [listing 1 of 2 here] |  |  |  | 0.9 |  | 
O=C(O)c1ccc(C(F)(F)F)cc1-c1ccc2c(c1)OC[C@H](Cc1ccccc1)[C@H]2O (stereo in doubt; 16) [CP-195543] | 6.8 | 2.4 |  |  | 280 | 660
O=C(O)c1ccc(Cl)cc1-c1ccc2c(c1)OC[C@H](Cc1ccc(-c3ccccc3)cc1)[C@H]2O (stereo in doubt; 23) [listing 2 of 2 here] |  |  |  | 6.6 |  | 

Structure (SMILES) | IC50 (Leukotriene B4 receptor [1]) [nM] | IC50 (Leukotriene B4 receptor [2]) [nM] | IC50 [3] [nM] | Ratio [4] | IC50 (Leukotriene B4 receptor [5]) [nM] | IC50 (Leukotriene B4 receptor [6]) [nM]
O=C(O)c1c(F)cccc1-c1ccc2c(c1)OC[C@H](Cc1ccccc1)[C@H]2O (stereo in doubt; 14) | 240 | 650 |  |  |  | 
O=C(O)c1ccccc1-c1ccc2c(c1)OC[C@H](Cc1ccccc1)[C@H]2O |  |  | 120 |  |  | 
O=C(O)c1ccc(Cl)cc1-c1ccc2c(c1)OC[C@H](Cc1ccc(F)cc1)[C@H]2O | 54 | 400 |  |  |  | 
O=C(O)c1c(F)cccc1-c1ccc2c(c1)OC[C@H](Cc1ccccc1)[C@H]2O (stereo in doubt; 12) | 22 | 10 |  |  |  | 
O=S(=O)(Nc1ccc(F)cc1-c1ccc2c(c1)OC[C@H](Cc1ccccc1)[C@H]2O)C(F)(F)F (stereo in doubt; 39) | 50 | 44 |  |  | > 3000 | > 3000
O=C(O)c1ccc(F)cc1-c1ccc2c(c1)OC[C@H](Cc1ccc(-c3ccccc3)cc1)[C@H]2O (stereo in doubt; 24) [listing 2 of 2 here] |  |  |  | 2.5 |  | 
O=C(O)c1ccc(F)cc1-c1ccc2c(c1)OC[C@H](Cc1ccc(-c3ccccc3)cc1)[C@H]2O (stereo in doubt; 25) [listing 1 of 2 here] |  |  |  | 7.3 |  | 
CC(C)c1ccc(C[C@H]2COc3cc(-c4cc(F)ccc4C(=O)O)ccc3[C@@H]2O)cc1 | 190 | 210 |  |  |  | 
O=S(=O)(Nc1ccc(F)cc1-c1ccc2c(c1)OC[C@H](Cc1ccccc1)[C@H]2O)C(F)(F)F (stereo in doubt; 38) [listing 2 of 2 here] | 3.8 | 15 |  |  | 360 | 330
O[C@H]1c2ccc(-c3cc(F)ccc3-c3nn[nH]n3)cc2OC[C@@H]1Cc1ccccc1 | 20 | 110 |  |  |  | 
O=C(O)c1ccc(F)cc1-c1ccc2c(c1)OC[C@H](Cc1ccccc1)[C@H]2O (stereo in doubt; 10) [listing 1 of 2 here] |  |  |  | 1.2 |  | 
COC(=O)c1ccc(Cl)cc1-c1ccc2c(c1)OC[C@H](Cc1ccccc1)[C@H]2O | 1700 | 6400 |  |  |  | 
O=C(O)c1ccc(C(F)(F)F)cc1-c1ccc2c(c1)OC[C@H](Cc1ccccc1)[C@H]2O (stereo in doubt; 15) [CP-195543] | 13 | 7 |  |  |  | 
O=C(O)c1ccc(C(F)(F)F)cc1-c1ccc2c(c1)OC[C@H](Cc1ccc(-c3ccccc3)cc1)[C@H]2O (stereo in doubt; 27) [listing 1 of 2 here] |  |  |  | 4.9 |  | 
O=C(O)c1c(-c2ccc3c(c2)OC[C@H](Cc2ccccc2)[C@H]3O)cccc1C(F)(F)F | 46 | 24 |  | 1.2 | 750 | 890
O=C(O)c1ccc(C(F)(F)F)cc1-c1ccc2c(c1)OC[C@H](Cc1ccc(-c3ccccc3)cc1)[C@H]2O (stereo in doubt; 27) [listing 2 of 2 here] | 27 | 7 |  |  | 820 | 4000
O=C(O)c1c(F)cccc1-c1ccc2c(c1)OC[C@H](Cc1ccccc1)[C@H]2O (stereo in doubt; 13) [listing 2 of 2 here] | 11 | 40 |  |  | 400 | 1000
O=C(O)c1ccc(Cl)cc1-c1ccc2c(c1)OC[C@H](Cc1ccccc1)[C@H]2O (stereo in doubt; 6) [listing 2 of 2 here] |  |  |  | 4.9 |  | 
O=C(O)c1ccc(F)cc1-c1ccc2c(c1)OC[C@H](Cc1ccc(-c3ccccc3)cc1)[C@H]2O (stereo in doubt; 25) [listing 2 of 2 here] | 14 | 5 |  |  | 700 | 5100
NS(=O)(=O)c1ccc(F)cc1-c1ccc2c(c1)OC[C@H](Cc1ccccc1)[C@H]2O | 37 | 17 |  |  | 540 | > 10000
O=C(O)c1ccc(F)cc1-c1ccc2c(c1)OC[C@H](CCc1ccccc1)[C@H]2O | 35 | 32 |  |  |  | 
O=C(O)c1ccc(F)cc1-c1ccc2c(c1)OC[C@H](Cc1ccccc1)[C@H]2O (stereo in doubt; 9) [listing 2 of 2 here] | 3 | 14 |  |  | 240 | 600
O=C(O)c1ccc(Cl)cc1-c1ccc2c(c1)OC[C@H](Cc1ccc(-c3ccccc3)cc1)[C@H]2O (stereo in doubt; 22) [listing 2 of 2 here] |  |  |  | 3.3 |  | 
O=C(O)c1ccc(F)cc1-c1ccc2c(c1)OC[C@H](Cc1ccccc1)[C@H]2O (stereo in doubt; 10) [listing 2 of 2 here] | 27 | 5 |  |  | 3000 | 3500
O=C(O)c1ccc(Cl)cc1-c1ccc2c(c1)OC[C@H](Cc1ccccc1)[C@H]2O (stereo in doubt; 7) | 200 | 83 |  |  |  | 
